16 compounds from US8871788B2, “Substituted N-alkyl and N-acyl tetrahydro-isoquinoline derivatives, preparation and therapeutic use thereof” (Sanofi, priority 2010, dated 2014) can be followed below.

By Ki is commonly meant a dissociation constant, usually derived from enzyme kinetics or from competition with a known ligand.

Each structure is given as a SMILES string.

One test concerns Rats. In words: Forced-Swimming Test in Rats. It is filed as in vivo, rat. The settings on record: p.o. twice, 0.1, 1, and 10 mg/kg, 6-min test. The protocol:
This example further illustrates the study of efficacy of the compounds of this invention as antidepressive agents in animal models.
The procedure was a modification of that described by Porsolt et al. (1977) Depression: a new animal model sensitive to antidepressant treatments. Nature 266:730-2. Rats were placed in individual glass cylinder (40 cm height, 18 cm diameter) containing water (22-25° C.) to a height of 15 cm. Two swimming sessions were conducted (a 15-min training session followed 24 h later by a 6-min test). After each swimming session, rats were placed under a heating lamp to avoid hypothermia. The duration of immobility was measured during the 6-min test. Example 1 of this invention was administered p.o. twice (15 min pre-test followed by first injection 24 h prior to […]) at three different dosages of 0.1, 1, and 10 mg/kg. The compound is active at all of these three dosage levels.

In test [1] the target is T1, rhesus (Macacca Mulatta) H3 receptor (Macaca mulatta, UniProt Q865E1).
T1 construct: 445 amino acid H3 receptor; expressed in transfected cells; host or cells: Flp-In T-REx 293 Cell Line (Invitrogen), pcDNA5/FRT/TO, induced with tetracycline
In words: Rhesus H3 [3H]-Methylhistamine radioligand binding assay (SPA). More on the design: species or system rhesus monkey (Macacca Mulatta). The settings on record: [3H]-Methylhistamine 2 nM, rhesus H3 membranes, Cheng-Prusoff. The protocol:
(§1) Rhesus H3 membranes were prepared from the Flp-In T-REx 293 Cell Line (Invitrogen) stably transfected with pcDNA5/FRT/TO (Invitrogen) containing the rhesus monkey (Macacca Mulatta) 445 amino acid H3 receptor. (Genbank #AY231164). Stably transfected cultures were amplified in tissue culture flasks by standard tissue culture methods and induced to express rhesus H3 by exposure to 500 ng/ml tetracycline (Cellgro) for 24 hours. After induction, cells were dissociated from flasks utilizing Cell Stripper (Cellgro). Cells were centrifuged (1K×g, 5 min) and pellet frozen in an ethanol-dry ice bath to disrupt cell membranes. Frozen cell pellet was re-suspended in 5 mM HEPES (pH 7.4, Invitrogen) at 10 ml/1000 cm2 of harvested cells. The cell suspension was drawn through an 18 gauge needle (2-3×) followed by a 23 gauge needle (2-3×) to further disrupt cell membranes. The cell suspension was centrifuged (40K×g, 30 min). Cell membrane pellet was re-suspended in 5 mM HEPES (pH 7.4, Invitrogen) at a final protein concentration of 10 mg/ml. Rhesus H3 membranes were stored under liquid nitrogen prior to use in [3H]-Methylhistamine and GTPγS radioligand binding assays.
(§2) Rhesus H3 radioligand binding assay was performed using rhesus H3 receptor membranes (prepared as described above), [3H]-Methylhistamine (Perkin Elmer) and WGA SPA beads (wheat germ agglutinin scintillation proximity assay) beads (Amersham). The assay was performed in 96-well Opti-Plates (Packard). Each reaction contained 50 μl rhesus H3 membranes (20-30 μg total protein), 50 μl WGA SPA beads (0.1 μg) and 50 μl of 83Ci/mmol [^3H]-Methylhistamine (final concentration 2 nM) and 50 μl of tested compound. The compounds of this invention and/or vehicle were diluted with binding buffer from 10 mM DMSO stocks. Assay plates were sealed with TopSeal (Perkin Elmer) and mixed on shaker (25° C., 1 hour). Assay plates were read on TopCount scintillation counter (Packard). Results were analyzed by Hill transformation and Ki values were determined by Cheng-Prusoff equation. Similar procedure was employed to determine the binding data for rat.

The target in another test is Rat H3 (Rattus norvegicus, UniProt Q9QYN8). In words: Rat H3 radioligand binding (similar procedure). The settings on record: rat H3, similar procedure to rhesus binding. The procedure: as §2
The target of the next test is T2, rhesus H3 (Macaca mulatta, UniProt Q865E1).
T2 construct: 445 amino acid H3 receptor; expressed in transfected cells; host or cells: Flp-In T-REx 293 Cell Line (Invitrogen), pcDNA5/FRT/TO, induced with tetracycline
In words: GTPγS radioligand binding assay, rhesus H3 constitutive functional activity in cell membranes. It is filed as biochemical, rhesus monkey (Macacca Mulatta). The settings on record: relative to basal levels. The protocol:
as §1

T2 sequence (Q865E1 1-445): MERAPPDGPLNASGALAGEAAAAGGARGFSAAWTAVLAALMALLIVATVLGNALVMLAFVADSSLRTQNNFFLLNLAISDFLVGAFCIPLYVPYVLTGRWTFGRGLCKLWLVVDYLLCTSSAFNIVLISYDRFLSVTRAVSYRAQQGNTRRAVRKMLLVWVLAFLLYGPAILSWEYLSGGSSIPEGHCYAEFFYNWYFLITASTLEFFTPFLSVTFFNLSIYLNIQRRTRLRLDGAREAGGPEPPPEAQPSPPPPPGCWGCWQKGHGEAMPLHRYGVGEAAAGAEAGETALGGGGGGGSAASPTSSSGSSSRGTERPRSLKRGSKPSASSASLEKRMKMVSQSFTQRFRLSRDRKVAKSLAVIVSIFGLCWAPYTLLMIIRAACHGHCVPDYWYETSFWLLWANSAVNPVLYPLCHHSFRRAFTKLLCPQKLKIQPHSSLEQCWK
T1 sequence (Q865E1 1-445): as above
Chain of Rat H3 (Q9QYN8 whole entry): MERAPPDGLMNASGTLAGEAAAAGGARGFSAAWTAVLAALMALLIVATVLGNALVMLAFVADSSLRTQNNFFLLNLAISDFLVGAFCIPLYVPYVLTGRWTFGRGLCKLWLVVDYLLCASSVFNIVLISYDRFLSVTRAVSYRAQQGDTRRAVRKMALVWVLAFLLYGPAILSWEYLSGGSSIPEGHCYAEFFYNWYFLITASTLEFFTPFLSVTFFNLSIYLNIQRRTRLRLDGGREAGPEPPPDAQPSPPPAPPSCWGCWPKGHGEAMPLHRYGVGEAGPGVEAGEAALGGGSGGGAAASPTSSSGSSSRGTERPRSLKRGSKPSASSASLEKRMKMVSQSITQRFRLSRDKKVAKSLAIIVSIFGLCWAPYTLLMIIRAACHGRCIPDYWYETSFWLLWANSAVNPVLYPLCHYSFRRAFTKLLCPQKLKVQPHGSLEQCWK

In the case of `C[C@H]1CCCN1[C@H]1CCN(c2ccc3c(c2)CCN(C2CCOCC2)C3=O)C1` [Example 1, 6-((2S,3′S)-2-Methyl-[1,3′]bipyrrolidinyl-1′-yl)-2-(tetrahydro-pyran-4-yl)-3,4-dihydro-2H-isoquinolin-1-one], the “activity in forced-swimming test (duration of immobility)” value in the test on Rats is “active”. Besides, the results for the Ki (in test [1]; on Rat H3) were 1.2 nM and 3.6 nM, respectively.
Consider `COc1ccc(C(=O)N2CCc3cc(N4CC[C@H](N5CCC[C@@H]5C)C4)ccc3C2)cc1` [Example 12, (4-Methoxy-phenyl)-[6-((2S,3′S)-2-methyl-[1,3′]bipyrrolidinyl-1′-yl)-3,4-dihydro-1H-isoquinolin-2-yl]-methanone], for which the “GTPγS-35 ASSAY % Inverse Agonism” value on rhesus H3 was −26.1%. The results for the inhibition constant Ki (in test [1]; on Rat H3) were 2.8 nM and 6.2 nM, respectively.
In the case of `C[C@H]1CCCN1[C@H]1CCN(c2ccc3c(c2)CCN(C(=O)C(c2ccccc2)c2ccccc2)C3)C1` [Example 13, 1-[6-((2S,3′S)-2-Methyl-[1,3′]bipyrrolidinyl-1′-yl)-3,4-dihydro-1H-isoquinolin-2-yl]-2,2-diphenyl-ethanone], at rhesus H3, the “GTPγS-35 ASSAY % Inverse Agonism” value was −16.1%. For the same compound, the Ki in test [1] was 3.7 nM; at Rat H3, 7.7 nM.
On to `C[C@H]1CCCN1[C@H]1CCN(c2ccc3c(c2)CCN(C(=O)c2cccnc2)C3)C1` [Example 14, [6-((2S,3′S)-2-Methyl-[1,3′]bipyrrolidinyl-1′-yl)-3,4-dihydro-1H-isoquinolin-2-yl]-pyridin-3-yl-methanone], for which the “GTPγS-35 ASSAY % Inverse Agonism” value on rhesus H3 is given as −17.2%. In addition, the Ki is 0.28 nM in test [1] and 2.6 nM at Rat H3.
The matching figures for `C[C@H]1CCCN1[C@H]1CCN(c2ccc3c(c2)CCN(C(=O)c2ccoc2)C3)C1` [Example 15, Furan-3-yl-[6-((2S,3′S)-2-methyl-[1,3′]bipyrrolidinyl-1′-yl)-3,4-dihydro-1H-isoquinolin-2-yl]-methanone]: −16.8%, 0.22 nM and 2.7 nM.
For `C[C@H]1CCCN1[C@H]1CCN(c2ccc3c(c2)CCN(C(=O)c2ccccc2)C3)C1` [Example 16, [6-((2S,3′S)-2-Methyl-[1,3′]bipyrrolidinyl-1′-yl)-3,4-dihydro-1H-isoquinolin-2-yl]-phenyl-methanone], on rhesus H3, the “GTPγS-35 ASSAY % Inverse Agonism” value is given as −18.9%. The inhibition constant (Ki) in test [1] stood at 0.29 nM; at Rat H3, 7.3 nM.
On to `C[C@H]1CCCN1[C@H]1CCN(c2ccc3c(c2)CCN(C(=O)c2ccc(F)cc2)C3)C1` [Example 17, (4-Fluoro-phenyl)-[6-((2S,3′S)-2-methyl-[1,3′]bipyrrolidinyl-1′-yl)-3,4-dihydro-1H-isoquinolin-2-yl]-methanone], for which the “GTPγS-35 ASSAY % Inverse Agonism” value on rhesus H3 is listed as −10.4%. The Ki in test [1] is 0.19 nM; on Rat H3, 3.1 nM.
Consider `C[C@H]1CCCN1[C@H]1CCN(c2ccc3c(c2)CCN(C(=O)C2CCCCC2)C3)C1` [Example 18, Cyclohexyl-[6-((2S,3′S)-2-methyl-[1,3′]bipyrrolidinyl-1′-yl)-3,4-dihydro-1H-isoquinolin-2-yl]-methanone], for which the “GTPγS-35 ASSAY % Inverse Agonism” value on rhesus H3 is −10.7%. Also, the figures for the inhibitory constant (Ki) (in test [1]; at Rat H3) were 0.094 nM and 0.24 nM, respectively.
In the case of `C[C@H]1CCCN1[C@H]1CCN(c2ccc3c(c2)CCN(C(=O)C2CCOCC2)C3)C1` [Example 19, [6-((2S,3′S)-2-Methyl-[1,3′]bipyrrolidinyl-1′-yl)-3,4-dihydro-1H-isoquinolin-2-yl]-(tetrahydro-pyran-4-yl)-methanone], the “GTPγS-35 ASSAY % Inverse Agonism” value at rhesus H3 is listed as −17.4%. The Ki was found to be 0.12 nM in test [1] and 0.22 nM at Rat H3.
On to `C[C@H]1CCCN1[C@H]1CCN(c2ccc3c(c2)CCN(C(=O)c2cc4c(ccn4CCOC[Si](C)(C)C)s2)C3)C1` [Example 20, [6-((2S,3′S)-2-Methyl-[1,3′]bipyrrolidinyl-1′-yl)-3,4-dihydro-1H-isoquinolin-2-yl]-[4-(2-trimethylsilanylmethoxy-ethyl)-4H-thieno[3,2-b]pyrrol-2-yl]-methanone], for which the “GTPγS-35 ASSAY % Inverse Agonism” value on rhesus H3 is given as −23.0%. Besides, the Ki in test [1] was 22 nM; on Rat H3, 140 nM.
For the compound `C[C@H]1CCCN1[C@H]1CCN(c2ccc3c(c2)CCN(C(=O)C2CCCC2)C3)C1` [Example 21, Cyclopentyl-[6-((2S,3′S)-2-methyl-[1,3′]bipyrrolidinyl-1′-yl)-3,4-dihydro-1H-isoquinolin-2-yl]-methanone], the “GTPγS-35 ASSAY % Inverse Agonism” value at rhesus H3 was −12.2%. The inhibitory constant (Ki) in test [1] amounted to 0.15 nM; on Rat H3, 0.51 nM.
With `COc1cccc(S(=O)(=O)N2CCc3cc(N4CC[C@H](N5CCC[C@@H]5C)C4)ccc3C2)c1.O=C(O)C(F)(F)F` [Example 22, 2-(3-Methoxy-benzenesulfonyl)-6-((2S,3′S)-2-methyl-[1,3′]bipyrrolidinyl-1′-yl)-1,2,3,4-tetrahydro-isoquinoline; compound with trifluoro-acetic acid], the “GTPγS-35 ASSAY % Inverse Agonism” value at rhesus H3 is listed as −27.7%. In addition, the Ki in test [1] was found to be 25 nM; at Rat H3, 15 nM.
With `COc1cccc(NC(=O)N2CCc3cc(N4CC[C@H](N5CCC[C@@H]5C)C4)ccc3C2)c1` [Example 23, 6-((2S,3′S)-2-Methyl-[1,3′]bipyrrolidinyl-1′-yl)-3,4-dihydro-1H-isoquinoline-2-carboxylic acid (3-methoxy-phenyl)-amide], on rhesus H3, the “GTPγS-35 ASSAY % Inverse Agonism” value was −22.5%. Also, the Ki in test [1] came to 11 nM; on Rat H3, 280 nM.
On the same counts, the results for `Cc1ccc(S(=O)(=O)N2CCc3cc(N4CC[C@H](N5CCC[C@@H]5C)C4)ccc3C2)cc1` [Example 24, 6-((2S,3′S)-2-Methyl-[1,3′]bipyrrolidinyl-1′-yl)-2-(toluene-4-sulfonyl)-1,2,3,4-tetrahydro-isoquinoline] are −33.2%, 88 nM and 110 nM.
The matching figures for `CCOC(=O)N1CCc2cc(N3CC[C@H](N4CCC[C@@H]4C)C3)ccc2C1` [Example 25, 6-((2S,3′S)-2-Methyl-[1,3′]bipyrrolidinyl-1′-yl)-3,4-dihydro-1H-isoquinoline-2-carboxylic acid ethyl ester]: −0.5%, 1.2 nM and 75 nM.
In the case of `C[C@H]1CCCN1[C@H]1CCN(c2ccc3c(c2)CCN(C(=O)Nc2ccc(-c4ccccc4)cc2)C3)C1` [Example 26, 6-((2S,3′S)-2-Methyl-[1,3′]bipyrrolidinyl-1′-yl)-3,4-dihydro-1H-isoquinoline-2-carboxylic acid biphenyl-4-ylamide], the “GTPγS-35 ASSAY % Inverse Agonism” value at rhesus H3 is listed as −16.1%. Further, the values for the inhibition constant Ki (in test [1]; on Rat H3) were 74 nM and 330 nM, respectively.
